According to PubChem BioAssay AID2060607 (Molecular Pharmacology Branch, DTP, NCI, 2025):
Several values for one entry are separate records, joined by “and”; a condition that tells them apart may be missing. Identical values can stand only once. Values belong to the molecule of their own block, whether it stands above or below them.

System: 876862-298-R-J1-PDC complex spheroids, viability % test/control
Assay: Anticancer human tumor 876862-298-R-J1-PDC patient-derived endometrial carcinoma cell line growth inhibition [CLK]
Details: for viability, T/C: stronger effect = lower value
Outline: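 Patient-derived tumor cells grown as complex spheroids with HUVEC endothelial cells and mesenchymal stem cells, treated with drug combinations. Concentrations descend in half-log steps from near clinical Cmax, or from 10 microM if Cmax unknown.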
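Note: spheroids exposed to drugs for 7 days before readout.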
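Throughout, for viability, T/C: 100% = DMSO vehicle control wells.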

IC50 (curve of compound): > 10000 nM
SMILES: C=CC(=O)N1CCN(c2nc(=O)n(-c3c(C)ccnc3C(C)C)c3nc(-c4c(O)cccc4F)c(F)cc23)C(C)C1 (centres undefined)
viability, T/C (compound 0.0316 µM): 95.8% | viability, T/C (compound 0.1 µM): 97.3% and 99.5% | viability, T/C (compound 0.316 µM): 102% and 108% | viability, T/C (compound 1 µM): 106% and 103% | viability, T/C (compound 3.16 µM): 110% and 114% | viability, T/C (compound 10 µM): 94.6% and 83%

IC50 (curve of first compound, second compound 0.0316 µM): < 31.6 nM | IC50 (curve of first compound, second compound 0.1 µM): < 31.6 nM | IC50 (curve of first compound, second compound 0.316 µM): < 31.6 nM | IC50 (curve of first compound, second compound 1 µM): < 31.6 nM | IC50 (curve of first compound, second compound 3.16 µM): < 31.6 nM | IC50 (curve of first compound, second compound 10 µM): < 31.6 nM
SMILES: CC(=O)O[C@H]1C(=O)[C@@]2(C)[C@H]([C@H](OC(=O)c3ccccc3)[C@]3(O)C[C@H](OC(=O)[C@H](O)[C@@H](NC(=O)c4ccccc4)c4ccccc4)C(C)=C1C3(C)C)[C@]1(OC(C)=O)CO[C@@H]1C[C@@H]2O + CNC(=O)c1ccc(Nc2nc(OC3CCCC3)c3c(-c4ccc5nc(C)oc5c4)c[nH]c3n2)c(OC)c1
viability, T/C (second compound 0.0316 µM, first compound 0.0316 µM): 32.5% | viability, T/C (second compound 0.0316 µM, first compound 0.1 µM): 37.6% | viability, T/C (second compound 0.0316 µM, first compound 0.316 µM): 37.8% | viability, T/C (second compound 0.0316 µM, first compound 1 µM): 36.5% | viability, T/C (second compound 0.0316 µM, first compound 3.16 µM): 37.3% | viability, T/C (second compound 0.0316 µM, first compound 10 µM): 43.6% | viability, T/C (second compound 0.1 µM, first compound 0.0316 µM): 51.2% | viability, T/C (second compound 0.1 µM, first compound 0.1 µM): 45.7% | viability, T/C (second compound 0.1 µM, first compound 0.316 µM): 45.6% | viability, T/C (second compound 0.1 µM, first compound 1 µM): 42.8% | viability, T/C (second compound 0.1 µM, first compound 3.16 µM): 49.8% | viability, T/C (second compound 0.1 µM, first compound 10 µM): 50.9% | viability, T/C (second compound 0.316 µM, first compound 0.0316 µM): 41.5% | viability, T/C (second compound 0.316 µM, first compound 0.1 µM): 45.6% | viability, T/C (second compound 0.316 µM, first compound 0.316 µM): 43.8% | viability, T/C (second compound 0.316 µM, first compound 1 µM): 41.4% | viability, T/C (second compound 0.316 µM, first compound 3.16 µM): 47.8% | viability, T/C (second compound 0.316 µM, first compound 10 µM): 45.9% | viability, T/C (second compound 1 µM, first compound 0.0316 µM): 32.2% | viability, T/C (second compound 1 µM, first compound 0.1 µM): 31% | viability, T/C (second compound 1 µM, first compound 0.316 µM): 33.2% | viability, T/C (second compound 1 µM, first compound 1 µM): 35.4% | viability, T/C (second compound 1 µM, first compound 3.16 µM): 36% | viability, T/C (second compound 1 µM, first compound 10 µM): 40.8% | viability, T/C (second compound 3.16 µM, first compound 0.0316 µM): 23.1% | viability, T/C (second compound 3.16 µM, first compound 0.1 µM): 22.9% | viability, T/C (second compound 3.16 µM, first compound 0.316 µM): 24.7% | viability, T/C (second compound 3.16 µM, first compound 1 µM): 26.6% | viability, T/C (second compound 3.16 µM, first compound 3.16 µM): 30.4% | viability, T/C (second compound 3.16 µM, first compound 10 µM): 33.6% | viability, T/C (second compound 10 µM, first compound 0.0316 µM): 21.6% | viability, T/C (second compound 10 µM, first compound 0.1 µM): 21% | viability, T/C (second compound 10 µM, first compound 0.316 µM): 23.4% | viability, T/C (second compound 10 µM, first compound 1 µM): 26.1% | viability, T/C (second compound 10 µM, first compound 3.16 µM): 25.3% | viability, T/C (second compound 10 µM, first compound 10 µM): 30%
